# Data: ChEMBL document CHEMBL2384946 (Bioorg Med Chem, 2013)
# Experiments:
# [1] = molecular target: D(2) dopamine receptor (Rattus norvegicus, UniProt P61169); assay: Displacement of [3H]spiperone from rat cloned dopamine D2L receptor expressed in HEK293 cells after 1 hr; type: cell-based
# [2] = molecular target: D(3) dopamine receptor (Rattus norvegicus, UniProt P19020); assay: Displacement of [3H]spiperone from rat cloned dopamine D3 receptor expressed in HEK293 cells after 1 hr; type: cell-based
# D(3) dopamine receptor (Rattus norvegicus, UniProt P19020), sequence (P19020 whole entry): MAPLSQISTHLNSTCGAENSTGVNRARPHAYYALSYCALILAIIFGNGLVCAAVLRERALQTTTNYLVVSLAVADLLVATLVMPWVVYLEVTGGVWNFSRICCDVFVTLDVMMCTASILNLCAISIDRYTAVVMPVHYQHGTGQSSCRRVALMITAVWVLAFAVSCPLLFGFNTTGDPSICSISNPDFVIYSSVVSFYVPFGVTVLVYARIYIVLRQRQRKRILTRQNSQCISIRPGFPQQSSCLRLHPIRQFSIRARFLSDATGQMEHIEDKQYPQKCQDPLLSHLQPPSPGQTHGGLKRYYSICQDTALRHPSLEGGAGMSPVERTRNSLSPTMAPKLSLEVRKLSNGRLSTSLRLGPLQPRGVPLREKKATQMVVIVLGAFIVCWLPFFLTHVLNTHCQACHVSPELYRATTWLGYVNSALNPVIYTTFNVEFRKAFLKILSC
# [3] = species on record: Rattus norvegicus; assay: Selectivity ratio of Ki for rat cloned dopamine D2L receptor to Ki for rat cloned dopamine D3 receptor
# [4] = molecular target: D(3) dopamine receptor (Homo sapiens, UniProt P35462); assay: Agonist activity at human dopamine D3 receptor expressed in CHO cells assessed as stimulation of [35S]GTPgammaS binding after 60 mins by scintillation counting analysis; type: functional, cell-based
# D(3) dopamine receptor (Homo sapiens, UniProt P35462), sequence (P35462 whole entry): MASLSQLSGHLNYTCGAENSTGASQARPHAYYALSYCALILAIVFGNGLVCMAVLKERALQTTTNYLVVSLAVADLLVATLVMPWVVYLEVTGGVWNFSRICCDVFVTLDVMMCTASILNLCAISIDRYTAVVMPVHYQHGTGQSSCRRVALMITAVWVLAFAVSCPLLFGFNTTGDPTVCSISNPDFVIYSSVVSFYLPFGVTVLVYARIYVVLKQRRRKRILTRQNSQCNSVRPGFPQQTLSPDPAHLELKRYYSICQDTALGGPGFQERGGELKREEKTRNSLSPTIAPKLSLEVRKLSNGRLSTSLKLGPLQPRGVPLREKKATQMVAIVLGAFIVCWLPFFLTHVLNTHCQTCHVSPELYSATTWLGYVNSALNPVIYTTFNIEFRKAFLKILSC
# [5] = molecular target: T1, D(2) dopamine receptor (Homo sapiens, UniProt P14416); assay: Agonist activity at human dopamine D2L receptor expressed in CHO cells assessed as stimulation of [35S]GTPgammaS binding after 60 mins by scintillation counting analysis; type: functional, cell-based
# T1 sequence (P14416 whole entry): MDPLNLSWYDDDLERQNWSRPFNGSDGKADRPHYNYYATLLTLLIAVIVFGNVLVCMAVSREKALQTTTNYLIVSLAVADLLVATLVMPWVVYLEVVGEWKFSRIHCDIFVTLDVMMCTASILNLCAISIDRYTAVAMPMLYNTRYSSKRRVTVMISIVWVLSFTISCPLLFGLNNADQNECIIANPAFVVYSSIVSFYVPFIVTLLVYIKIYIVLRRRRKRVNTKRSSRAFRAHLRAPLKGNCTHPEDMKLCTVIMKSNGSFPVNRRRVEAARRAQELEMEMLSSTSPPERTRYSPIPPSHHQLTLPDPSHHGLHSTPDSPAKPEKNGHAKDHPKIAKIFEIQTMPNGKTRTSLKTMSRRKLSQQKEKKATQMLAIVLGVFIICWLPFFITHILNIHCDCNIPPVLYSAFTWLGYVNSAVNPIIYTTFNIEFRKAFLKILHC
# [6] = molecular target: T1, D(2) dopamine receptor; assay: Agonist activity at human dopamine D2L receptor expressed in CHO cells assessed as stimulation of [35S]GTPgammaS binding after 60 mins by scintillation counting analysis relative to dopamine; type: functional, cell-based
# D(2) dopamine receptor (Rattus norvegicus, UniProt P61169), sequence (P61169 whole entry): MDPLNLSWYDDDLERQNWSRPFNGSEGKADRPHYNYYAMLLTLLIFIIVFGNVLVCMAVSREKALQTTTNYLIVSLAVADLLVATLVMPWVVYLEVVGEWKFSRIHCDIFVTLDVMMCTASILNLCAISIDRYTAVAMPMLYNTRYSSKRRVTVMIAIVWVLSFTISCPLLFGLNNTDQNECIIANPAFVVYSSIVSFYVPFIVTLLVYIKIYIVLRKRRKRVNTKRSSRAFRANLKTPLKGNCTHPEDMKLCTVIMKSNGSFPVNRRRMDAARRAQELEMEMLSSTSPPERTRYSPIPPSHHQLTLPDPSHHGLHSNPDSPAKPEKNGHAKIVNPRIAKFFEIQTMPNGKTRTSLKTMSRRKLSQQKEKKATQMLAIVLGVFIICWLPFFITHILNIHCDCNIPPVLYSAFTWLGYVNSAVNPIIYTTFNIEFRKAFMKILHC
SMILES,Ki [1] [µM],Ki [2] [µM],Ratio Ki [3],EC50 ([4]; cho),EC50 ([5]; cho),EC50 ([4]; read-out: EC50) [µM],Emax [6] [%],EC50 ([5]; read-out: EC50) [µM]
CCCN(CCN1CCN(c2ccccc2OC)CC1)C1CCc2cc3[nH]cnc3cc2C1 (centres undefined),0.443,0.0197,22.5,–,–,–,–,–
CCCN(CCN1CCN(c2ccccc2)CC1)[C@H]1CCc2c(cccc2OS(=O)(=O)c2ccc(OC)cc2)C1,0.497,0.0176,–,Not Active,Not Active,–,–,–
CCCN(CCN1CCN(c2ccccc2)CC1)C1CCc2ccc(NS(=O)(=O)c3ccc(OC)cc3)cc2C1 (racemic),0.0649,0.00222,–,–,–,–,–,–
CCCN(CCN1CCN(c2ccccc2)CC1)C1CCc2cc3[nH]cnc3cc2C1 (centres undefined),1.28,0.06,21.3,–,–,–,–,–
CCCN(CCN1CCN(c2ccccc2)CC1)C1CCc2ccc(NC(C)=O)cc2C1 (centres undefined),1.3,0.174,7.44,–,–,–,–,–
CCCN(CCN1CCN(c2ccccc2OC)CC1)C1CCc2cc3[nH]c(=O)[nH]c3cc2C1 (centres undefined),0.417,0.195,2.14,–,–,–,–,–
CCCN(CCN1CCN(c2nccc3ccccc23)CC1)[C@H]1CCc2nc(N)sc2C1,–,–,121,–,–,–,–,–
CCCN(CCN1CCN(c2ccccc2)CC1)[C@H]1CCc2ccc(N)cc2C1,2.71,0.0455,–,–,–,–,–,–
CCCN(CCN1CCN(c2ccccc2)CC1)C1CCc2ccc(N)cc2C1 (racemic),0.638,0.0222,–,–,–,–,–,–
CCCN(CCN1CCN(c2ccccc2)CC1)C1CCc2cc3[nH]c(N)nc3cc2C1 (centres undefined),–,–,8.89,–,–,–,–,–
CCCN(CCN1CCN(c2ccccc2)CC1)C1CCc2cc3cc[nH]c3cc2C1 (centres undefined),0.127,0.0107,11.9,–,–,–,–,–
CCCN(CCN1CCN(c2ccccc2)CC1)[C@H]1CCc2c(cccc2OS(=O)(=O)c2ccc(C)cc2)C1,0.632,0.032,19.8,–,–,–,–,–
CCCN(CCN1CCN(c2ccccc2)CC1)[C@@H]1CCc2ccc(N)cc2C1,0.601,0.0202,–,–,–,0.0303,36.8,0.179
CCCN(CCN1CCN(C(=O)c2cc3ccccc3[nH]2)CC1)C1CCc2nc(N)sc2C1 (centres undefined),1.07,0.00184,–,–,–,0.00026,101,–
CCCN(CCN1CCN(c2ccccc2)CC1)C1CCc2ccc(NS(=O)(=O)c3ccc(C)cc3)cc2C1 (centres undefined),0.0392,0.00369,10.6,–,–,–,–,–
CCCN(CCN1CCN(c2ccccc2OC)CC1)C1CCc2cc3[nH]c(=S)[nH]c3cc2C1 (centres undefined),0.23,0.112,2.05,–,–,–,–,–
CCCN(CCN1CCN(c2ccccc2)CC1)[C@@H]1CCc2ccc(NS(=O)(=O)c3ccc(OC)cc3)cc2C1,0.101,0.00232,–,Not Active,Not Active,–,–,–
CCCN(CCN1CCN(c2ccccc2)CC1)C1CCc2ccc(NS(=O)(=O)c3ccc(C(F)(F)F)cc3)cc2C1 (centres undefined),0.0912,0.00864,10.6,–,–,–,–,–
CCCN(CCN1CCN(c2ccccc2)CC1)C1CCc2ccc3nc[nH]c3c2C1 (centres undefined),0.52,0.0541,9.61,–,–,–,–,–
CCCN(CCN1CCN(c2ccccc2)CC1)C1CCc2ccc(NS(=O)(=O)c3ccc(Cl)cc3)cc2C1 (centres undefined),0.0724,0.00413,17.5,–,–,–,–,–
CCCN(CCN1CCN(c2ccccc2)CC1)C1CCc2ccc(NC(=O)c3ccccc3)cc2C1 (centres undefined),0.624,0.109,5.72,–,–,–,–,–
CCCN(CCN1CCN(c2ccccc2)CC1)[C@@H]1CCc2ccc(OS(=O)(=O)c3ccc(OC)cc3)cc2C1,1.08,0.0269,40,–,–,–,–,–
